Laboratory results taken from paper PMC6149849, “Cymantrenyl-Nucleobases: Synthesis, Anticancer, Antitrypanosomal and Antimicrobial Activity Studies” (Molecules : A Journal of Synthetic Chemistry and Natural …, 2017).
Where two headings read alike, the source gives them in different places.

Key:
[1] = test system: MDA-MB-231 (triple negative breast adenocarcinoma); experiment: MTT cytotoxicity assay, MDA-MB-231; format: cell-based, human
Experimental: (§3) Anticancer activity of cymantrenes was determined using a panel of human cancer cell lines that were derived from solid tumors. […] The inhibitory effect of cymantrene derivatives on cell proliferation and growth was determined based on survival curves and was expressed as IC50 values (concentration required to achieve a 50% decrease in cell viability when compared to the viability of untreated control cells) calculated using GraphPad Prism 4.02 software for Windows (GraphPad Software, San Diego, CA, USA). Cell viability was determined by the MTT microplate spectrophotometric cytotoxicity test.
(§4) Cells were grown as a monolayer in DMEM growth medium, supplemented with 10% FBS, penicillin (10 U/mL) and streptomycin (50 μg/mL), under standard conditions (37 °C, 5% CO2 and 95% air, 100% humidity) and periodically checked for Mycoplasma contamination.
(§5) The cytotoxicity of cymantrene derivatives was evaluated by the MTT microplate methods as described elsewhere [67] by incubating the cells with increasing concentrations of tested compounds for 24 h. Briefly, 0.1 mL of logarithmically growing cells were seeded in a 96-well microplate (5 × 10^4 cells/well) a day before the experiments and after 24 h of culture, tested compounds, dissolved in DMSO, and diluted in culture medium, were added. […] After further incubation for 24 h, the medium was replaced with fresh medium and the cells were allowed to grow for additional 48 h. Then, the medium was aspirated and 0.05 mL of MTT (final concentration of 5 mg/mL medium) added to each well, and the cells were incubated for further 4 h. The absorbance of the product, resulting from the MTT reduction, was read with a microplate reader at 545 nm. The percentage of viable cells was calculated by comparing the absorbance of treated cells with that of the untreated control cells (taken as 100%). The IC50 concentration of each compound was calculated from the cell survival curves using GraphPad Prism 4.02 software for Windows (GraphPad Software, San Diego, CA, USA).

[2] = test system: S. aureus ATCC 29213 (MSSA); experiment: Antibacterial liquid microdilution (CLSI M07-A8); format: cell-based, Staphylococcus aureus; conditions: 18 to 24 h
Experimental: (§1) Organometallic compounds play an increasingly important role in the search for new antibacterial agents. We, therefore, thought to investigate also the bactericidal activity of the newly synthesized cymantrenes 1–7, compound C and CymH. The antibacterial activity of the compounds was tested against Gram-positive methicillin-sensitive Staphylococcus aureus (MSSA), methicillin-resistant S. aureus (MRSA), vancomycin-intermediate S. aureus (VISA), S. epidermidis, and Gram-negative Escherichia coli bacterial strains, and expressed as minimal inhibitory concentration (MIC) values (Table 3).
(§2) The antibacterial activity of CymH, 1–7 and C and the reference drugs penicillin G and polymyxin B was tested by the liquid microdilution method under standard conditions using twofold dilution series, as described in the Clinical and Laboratory Standards Institute (CLSI), reference method M07-A8, and expressed as minimal inhibitory concentration (MIC) values. A panel of Gram-positive bacterial strains, S. aureus ATCC® 29213 (sensitive to methicillin, (MSSA)), S. aureus ATCC® 43300 (resistant to methicillin, (MRSA)), S. aureus ATCC 700787™ (intermediate to vancomycin, (VISA)), and S. epidermidis ATCC 12228™, and one Gram-negative, strain E. coli ATCC BAA-198™ (ESBL) were used. In addition, four clinical isolates of S. aureus (MSSA and MRSA) and two clinical isolates of S. epidermidis that were collected from different patients at the Medical University of Warsaw, Poland, were also tested. The bacterial cells were cultivated on tryptic soy agar (TSA) and nutrient agar (NA), according to ATCC recommendations. All of the strains were incubated at 37 °C. Tested compounds were dissolved in DMSO and then serially diluted twofold with cation-adjusted Mueller-Hinton broth (CAMHB). Then, 95 µL of the dilutions were dispensed into microdilution sterile plates (Mar-Four), followed by the addition of 5 µL of bacteria inoculum containing 5 × 10^4 CFU/mL. The final concentrations of the compounds ranged from 512 to 2 µg/mL. Each compound was tested in triplicate, and Penicillin G (8–0.15 µg/mL) and Polymyxin B (256–0.0625 µg/mL) were used as controls. The plates were incubated at 37 °C for 18 to 24 h depending on the bacterial strain. Thereafter, the absorbance was measured at λ = 540 nm and λ = 595 nm using a Spectrostar Omega microplate reader (BMG Labtech, Offenburg, Germany). The MIC value was defined as the lowest concentration of a compound that reduced the growth by 100%.

[3] = test system: S. aureus ATCC 43300 (MRSA); experiment: Antibacterial liquid microdilution (CLSI M07-A8); format: cell-based, Staphylococcus aureus; conditions: 18 to 24 h
Experimental: as §1, §2

[4] = test system: S. aureus ATCC 700787 (VISA); experiment: Antibacterial liquid microdilution (CLSI M07-A8); format: cell-based, Staphylococcus aureus; conditions: 18 to 24 h
Experimental: as §1, §2

[5] = test system: human myeloid leukemia HL-60 cells; experiment: General cytotoxicity, resazurin viability assay
Experimental: All of the cultures were maintained at 37 °C in a humidified atmosphere containing 5% of CO2. Toxicity assays were performed, as previously described, with some modifications. In brief, trypanosomes and HL-60 cells were seeded at an initial cell density of 10^4/mL and 5 × 10^4/mL, respectively, in 96-well plates in a final volume of 200 μL culture medium containing various concentrations of test compounds dissolved in 100% DMSO. […] The controls contained DMSO alone. In all of the experiments, the final DMSO concentration was 0.9%. After 24 h incubation, 20 µL of a 0.5 mM resazurin solution prepared in PBS was added and the cultures were incubated for a further 48 h. Resazurin is a vital dye that, when being reduced by living cells, changes its colour from blue to pink. Thus, by measuring absorbance, the proliferation of cells can be easily determined. The change in absorbance was read with a microplate reader using a test wavelength of 570 nm and a reference wavelength of 630 nm. GI50 values were calculated by linear interpolation according to the method described by Huber and Koella. MIC values were determined microscopically.

[6] = Determination of log Po/w by chromatographic (RP-HPLC) method, Soczewiński–Wachtmeister relationship; conditions: water/methanol, C18, 20 °C
Experimental: In this study, a chromatographic method and the Soczewiński–Wachtmeister relationship were used in order to determine the lipophilicity of the compounds [38, 39, 40, 41]
For the determination of log Po/w values, the newly synthesized compounds were analyzed by an Agilent 1200 system (Agilent Technologies, Santa Clara, CA, USA) equipped with a Zorbax Eclipse XDB column (C18, 250 × 4.6 mm, Agilent Technologies) and controlled by the software ChemStation Data Analysis. The separation was isocratic, and water/methanol (HPLC gradient grade, Sigma-Aldrich, St. Louis, MO, USA) mixtures containing 0.50, 0.55, 0.60, 0.65, 0.70, 0.75, 0.80, 0.85, 0.90 and 0.95 volume fractions of organic modifier were used as the mobile phase. The flow rate was 1.0 mL/min for the 7 and 2 and 0.8 mL/min for other compounds. The chromatographic peaks of test compounds were detected by UV absorbance at 230 nm. The column temperature was kept at 20 °C. The dead-time values were measured from the effluent peaks. All of the runs were performed in triplicate, and the resulting average values were used for the calculation of the retention factors.

[7] = test system: SKOV-3 cells; experiment: Apoptotic/necrotic cell death, Hoechst 33258/propidium iodide staining, fluorescence microscopy; format: cell-based, human; conditions: for increase of apoptotic cells compared to untreated control cells: SKOV-3, 24 h treatment with IC50 concentrations, post-treatment 24 and 48 h; for apoptotic cell fraction predominantly increased: SKOV-3, IC50 concentrations
Experimental: To determine the mode of cell death that was triggered by cymantrene derivatives, appropriately stained SKOV-3 cells were evaluated for morphological changes using fluorescence microscopy. For evaluation of apoptosis and autophagy, cells were stained with Hoechst 33258/propidium iodide to distinguish between live, apoptotic and necrotic cells and reveal condensed chromatin and apoptotic bodies (a hallmark of apoptosis), and with acridine orange to detect the development of acidic vesicular organelles (AVOs—a hallmark of autophagy).
One day prior to the experiments, cells were seeded at the appropriate density into 35 mm diameter dishes. […] At the end of incubation, the medium was aspirated, the cell monolayer was washed twice with pre-warmed PBS, and fresh medium was added. The cells were cultured in drug-free medium for an additional 24 or 48 h to enable them to recover after the exposure to the compounds and to repair any induced damages.
Quantitative analysis of morphological changes that are associated with apoptosis, necrosis, and autophagy were assessed using a fluorescence microscope (Olympus IX70, Tokyo, Japan) at 400× magnification, as described elsewhere. At the indicated time points, cells were washed with PBS, trypsinized, and centrifuged at 1000 rpm (fixed angle rotor, 72× g) for 5 min at 37 °C. The supernatant was removed and the cell pellet (100 µL) was transferred to the Eppendorf tube, mixed with Ho33258 (2 µL, 0.13 mM) and PI (2 µL, 0.23 mM), and incubated for 5 min in the dark at room temperature. At least 300 stained cells were counted in triplicate in each of the three independent experiments. Cells were classified as live, apoptotic, or necrotic on the basis of their morphological and staining characteristics, and each fraction was related to the total cell number.

[8] = test system: U87-MG (glioblastoma); experiment: MTT cytotoxicity assay, U87-MG; format: cell-based, human
Experimental: as §3, §4, §5

[9] = test system: S. epidermidis ATCC 12228; experiment: Antibacterial liquid microdilution (CLSI M07-A8); format: cell-based, Staphylococcus epidermidis; conditions: 18 to 24 h
Experimental: as §1, §2

[10] = test system: MCF-7 (hormone-responsive breast adenocarcinoma); experiment: MTT cytotoxicity assay, MCF-7; format: cell-based, human
Experimental: as §3, §4, §5

[11] = test system: E. coli ATCC BAA-198 (ESBL); experiment: Antibacterial liquid microdilution (CLSI M07-A8); format: cell-based, Escherichia coli; conditions: 18 to 24 h
Experimental: as §1, §2

[12] = test system: HepG2 (hepatocellular carcinoma); experiment: MTT cytotoxicity assay, HepG2; format: cell-based, human
Experimental: as §3, §4, §5

[13] = test system: Gram-positive bacterial strains, including MRSA and VISA pathogens; experiment: Antibacterial activity over the panel of strains (summary statements); format: cell-based; conditions: for antibacterial activity in words: reference bacterial strains; for antibacterial activity (range over strains): summary range
Experimental: as §1, §2

| SMILES | MIC, S. aureus ATCC 29213 (MSSA) [2] [µg/mL] | MIC, S. aureus ATCC 43300 (MRSA) [3] [µg/mL] | MIC, S. aureus ATCC 700787 (VISA) [4] [µg/mL] | increase of apoptotic cells compared to untreated control cells [7] [fold] | apoptotic cell fraction predominantly increased [7] | MIC, S. epidermidis ATCC 12228 [9] [µg/mL] | MIC, E. coli ATCC BAA-198 [11] [µg/mL] | IC50 [1] [µM] | GI50 [5] [µM] | HL-60 MIC [5] [µM] | IC50 [8] [µM] | IC50 [10] [µM] | IC50 [12] [µM] | antibacterial activity in words [13] | antibacterial activity (range over strains) [13] [µg/mL] | other results |
| --- | --- | --- | --- | --- | --- | --- | --- | --- | --- | --- | --- | --- | --- | --- | --- | --- |
| Nc1ncnc2c1ncn2CCC(O)[C]12[CH]3[CH]4[CH]5[CH]1[Mn]4532[P](c1ccccc1)(c1ccccc1)c1ccccc1.[C-]#[O+].[C-]#[O+] (racemic) [Compound 5] | >256 | >256 | >256 | 9 | early apoptotic cells | >256 | >256 | – | – | – | – | – | – | – | – | IC50 ([1]; 24 h incubation, MTT, means ± SEM, read-out: cytotoxicity IC50, MDA-MB-231): 56 ± 2.07 µM; HL-60 MIC ([5]; concentration at which all cells were killed): 100 µM; GI50 ([5]; read-out: HL-60 GI50, 50% growth inhibition): 28.7 ± 3 µM; Log Po/w [6]: 4.8; IC50 ([8]; 24 h incubation, MTT, means ± SEM, read-out: cytotoxicity IC50, U87-MG): 54.2 ± 2.71 µM; IC50 ([10]; 24 h incubation, MTT, means ± SEM, read-out: cytotoxicity IC50, MCF-7): 102 ± 1.11 µM; IC50 ([12]; 24 h incubation, MTT, means ± SEM, read-out: cytotoxicity IC50, HepG2): 106 ± 2.31 µM |
| COC(CCn1cnc2c(N(C)C)ncnc21)[C]12[CH]3[CH]4[CH]5[CH]1[Mn]4532.[C-]#[O+].[C-]#[O+].[C-]#[O+] (racemic) [Compound 6] | >512 | >512 | >512 | 6 | – | >512 | >512 | > 150 | 95.2 ± 44.4 | >100 | 131 ± 3.53 | 111 ± 3.57 | 86.9 ± 2.34 | – | – | – |
| O=C(CCn1cc(F)c(=O)[nH]c1=O)[C]12[CH]3[CH]4[CH]5[CH]1[Mn]4532.[C-]#[O+].[C-]#[O+].[C-]#[O+] (centres unmarked) [Compound 1] | 64 | 32 | 32 | 6 | – | 8 | >512 | 27.9 ± 1.11 | 33.1 ± 3.4 | 100 | 64.5 ± 3.22 | 70.5 ± 2.52 | 114 ± 2.72 | remarkable potency against all of the Gram-positive bacterial strains | 8 to 64 | – |
| Nc1ncnc2c1ncn2CCC(O)[C]12[CH]3[CH]4[CH]5[CH]1[Mn]45321[P](c2ccccc2)(c2ccccc2)CC[P]1(c1ccccc1)c1ccccc1.[C-]#[O+] (racemic) [Compound C] | 32 | 32 | 32 | 9 | early apoptotic cells | 16 | >128 | 43.1 ± 1.95 | – | – | 38.3 ± 1.91 | 104 ± 1.19 | 66.6 ± 3.33 | remarkable potency against all of the Gram-positive bacterial strains | 8 to 64 | – |
